Molecules are shown by their SMILES.

For series [1], the system named is NHDF (normal human dermal fibroblasts). The series can be described thus: MTT cytotoxicity assay, NHDF control cells, 72 h. Format: cell-based. The following applies: free compound in DMSO. On the procedure: (§1) In vitro cell culture procedures were performed under aseptic conditions and cultures were maintained in an Innova CO-180 incubator (New Brunswick Scientific, Edison, NJ, USA). Pancreatic cancer cells, namely, BxPC-3 (primary pancreatic tumor) and AsPC-1 (from ascites of a patient with pancreatic cancer) cells, were cultured in RPMI-1640 medium supplemented with 10% heat inactivated fetal bovine serum (FBS), GlutaMAX™ and antibiotic-antimycotic. NHDF cells were cultured in alpha-MEM medium supplemented with 10% heat-inactivated FBS, GlutaMAX™ and antibiotic-antimycotic. Culture was carried out at 37 °C in a humidified atmosphere containing 5% CO2.
(§2) The effect of CA and its derivatives on cell viability was determined using a quantitative colorimetric MTT assay adapted from Mosmann. Cells were seeded in 96-well plates (5 × 10^3/well), in appropriate complete cell culture medium, for 24 h. The cells were treated with caffeic acid derivatives (in the range of 18.75–150 μM), DMSO (an equivalent volume of DMSO was used as a negative control, maximal concentration was 0.4% v/v) or liposomal formulations for 72 h. The medium containing tested chemicals was removed and MTT solution (working solution: stock 0.5 mg/mL was 10 times diluted in medium) was added to the wells, and the plates were incubated for a further 3 h. Subsequently, the MTT solution was replaced with DMSO (50 μL/well) to dissolve the purple formazan crystals. Absorbance was measured at 560 nm with a reference wavelength of 670 nm on an Asys UVM 340 Microplate Reader (Cambridge, UK). Results were expressed as the percentage of surviving cells, with respect to the control (the untreated cells) calculated as: Cell Viability (%) = (AT/AC) × 100(2) where: • AT = Absorbance of the treatment well (treated cells); • AC = Absorbance of the control well (not treated cells).
(§3) IC50 values were calculated using GraphPad Prism for Windows (GraphPad Software, La Jolla, CA, USA). The degree of selectivity of the CA derivatives against pancreatic cancer cells was expressed by the selectivity index (SI) where: SI = IC50 normal cells/IC50 cancer cells(3)
(§4) The purpose of this study was to obtain a preliminary insight into the anticancer activity of a series of caffeic acid derivatives. In order to determine the in vitro cytotoxicity of the resynthesized compounds, the activity of CA and twelve derivatives (Table 1), were screened against two human PC cell lines, BxPC3 and AsPC1, derived from primary and metastatic tumors, respectively. Since we were also interested in evaluating the degree of selectivity of the synthetized derivatives, we decided to use normal human dermal fibroblasts as control, healthy, cells. This made it possible to determine the specificity of the tested substances, in terms of their selectivity index towards pancreatic cancer cells. The cytotoxicity of the examined compounds was estimated using the classic MTT assay, which is based on the detection of the activity of oxidoreductive enzymes (mainly mitochondrial succinate dehydrogenase), which are present only in living, metabolically active cells. During the experiments, cells were incubated for 72 h in the presence of increasing concentrations of CA and the series of CA derivatives, in the range of 18.75–150 μM. […] Untreated cells were tested as the control group.

In series [2] the test system is AsPC1 pancreatic cancer cells. The series can be described thus: MTT cytotoxicity assay, AsPC1 cells, 72 h. Format: cell-based, human. The following applies: for IC50: Homo sapiens, ASPC1, free compound in DMSO, MTT, 72 h; for AsPC1 SI: selectivity index = IC50 of NHDF/IC50 of AsPC1, free compound. On the procedure:
as §1, §2, §3, §4
(Tetrazolium dyes change colour on reduction, which living cells bring about.)

The subject of series [3] is BxPC3 pancreatic cancer cells. The series can be described thus: MTT cytotoxicity assay, BxPC3 cells, 72 h. The format is cell-based, human. The following applies: for IC50: Homo sapiens, BXPC-3, free compound in DMSO, MTT, 72 h; for BxPC3 SI: selectivity index = IC50 of NHDF/IC50 of BxPC3, free compound. As to the method: as §1, §2, §3, §4
A short description of series [4]: Compound encapsulation efficiency (EE) in liposomes. The format is physicochemical. The settings on record: SPC:DSPE-PEG2000 95:5 mol/mol liposomes. As to the method:
Caffeic acid derivatives encapsulated liposomes were prepared using the dry lipid film and extrusion method. A 1 mL solution of 10 mg of total lipids in chloroform (SPC:DSPE-PEG2000 95:5 mol/mol) were mixed with 1 mg of caffeic acid esters in methanol. Subsequently, solvents were removed from the samples via evaporation under a stream of nitrogen-gas to form a homogeneous lipid film on the flask wall and dried for 2 h at low pressure using a Savant Modulyo lyophilizer (Thermo Fisher Scientific, Waltham, MA, USA). Then, the lipid film was suspended by addition of 1 mL of sterile normal saline (0.9% NaCl), with mixing, until it was completely hydrated. […]
The lipid concentration was determined by the Stewart assay. The amount of (7) was determined spectrophotometrically at 290 nm and was calculated from the appropriate calibration curve according to the method described previously:EE (%) = CAf(mg/mL)/Lf(mg/mL)/CAi(mg/mL)/Li(mg/mL) × 100(1) where CAi(mg/mL)/Li(mg/mL) represents the (caffeic acid derivate)-to-lipid ratio at the point when the compound was mixed with the liposomes, and CAf(mg/mL)/Lf(mg/mL) is the final (caffeic acid derivate)-to-lipid ratio of the liposomes.

The subject of a further series is BxPC3 cells. Details: method as in PMID 18824880. The following applies: 10 μg/mL (35 μM); cited from earlier work.
Series [5] deals with PANC-1 pancreatic cancer cell line. On the set-up: method as in PMID 26373299. The following applies: 25 μg/mL (87 μM), 48 h incubation; cited from earlier work.
For series [6], the system named is MIAPACa-2 pancreatic cancer cell line. On the set-up: method as in PMID 26373299. The settings on record: 25 μg/mL (87 μM), 48 h incubation; cited from earlier work.

With `CC(=O)/C=C/c1ccc(O)c(O)c1O` [(11), 4-(2’, 3’, 4’-trihydroxyphenyl)-3 (E)-buten-2-one], the IC50 (commonly the concentration at which inhibition is half-maximal) in series [1] was 61.7 ± 10.5 µM. In series [2], the IC50 worked out at 18.4 ± 0.74 µM and the “AsPC1 SI” value is 3.36. Also, in series [3], the concentration for half-maximal inhibition (IC50) was found to be 21.7 ± 1.51 µM and the “BxPC3 SI” value was determined as 2.84.
`CC(=O)/C=C/c1ccccc1O` [Compound (7)] displayed an Encapsulation efficiency in series [4] of 93%. Also, in series [1], 61.1 ± 1.95 µM corresponded to half-maximal inhibition (IC50). Further, in series [2], it took 18.7 ± 0.24 µM to reach half-maximal inhibition (IC50) and the “AsPC1 SI” value is 3.27. In series [3], the IC50 is 22.4 ± 2.52 µM and the “BxPC3 SI” value came to 2.73.
In turn, `CC(=O)/C=C/c1ccc(O)cc1` [(9)] came in with an IC50 in series [1] of 59.2 ± 11.6 µM. Besides, in series [2], half-maximal inhibition (IC50) required 25.6 ± 2.17 µM and the “AsPC1 SI” value is on record as 2.31. Also, in series [3], it took 28.1 ± 3.36 µM to reach half-maximal inhibition (IC50) and the “BxPC3 SI” value is given as 2.11.
As for `CC(=O)/C=C/c1cccc(O)c1` [(8)], in series [1], 79.7 ± 6.3 µM corresponded to half-maximal inhibition (IC50). For the same compound, in series [2], 19.2 ± 0.72 µM corresponded to half-maximal inhibition (IC50) and the “AsPC1 SI” value was determined as 4.14. Also, in series [3], the IC50 came to 30.5 ± 4.55 µM and the “BxPC3 SI” value is 2.61.
`COC(=O)/C=C/c1ccc(O)c(O)c1O` [(5)]: the IC50 stood at 98.8 ± 9.56 µM in series [1], 42.5 ± 3.57 µM in series [2] and 46.6 ± 3.47 µM in series [3].
In series [1], `COc1cc(/C=C/C(C)=O)ccc1O` [(12)] gave an IC50 of 51.5 ± 1.2 µM. In series [2], the IC50 was found to be 38 ± 6.12 µM and the “AsPC1 SI” value was 1.36. Moreover, in series [3], it took 29.9 ± 5.13 µM to reach half-maximal inhibition (IC50) and the “BxPC3 SI” value is listed as 1.72.
For `O=C(/C=C/c1ccc(O)c(O)c1)OCCc1ccccc1` [CAPE, caffeic acid phenethyl ester], the Inhibition (usually the change of the read-out against control, counted positive when it falls) with BxPC3 cells is 80.4%. The “Reduction of proliferation rate” value is on record as 93.0% in series [5] and 65.7% in series [6].
In turn, `CC(=O)/C=C/c1ccc(O)cc1O` [(10)] showed an IC50 in series [1] of 54.6 ± 2.25 µM. Besides, in series [2], the half-maximal inhibitory concentration (IC50) is 35.3 ± 1.28 µM and the “AsPC1 SI” value is 1.54. Also, in series [3], half-maximal inhibition (IC50) was put at 34.1 ± 1.74 µM and the “BxPC3 SI” value was found to be 1.60.

These data come from publication PMC7766656, “Evaluation of the In Vitro Cytotoxic Activity of Caffeic Acid Derivatives and Liposomal Formulation against Pancreatic Cancer Cell Lines” (Materials, 2020).
